Where two headings read alike, the source gives them in different places.

The assay deals with T1, PPME (Homo sapiens, UniProt Q9Y570).
T1 construct: made in house; host or cells: E. coli BL21(DE3)
T1 sequence (Q9Y570 1-386): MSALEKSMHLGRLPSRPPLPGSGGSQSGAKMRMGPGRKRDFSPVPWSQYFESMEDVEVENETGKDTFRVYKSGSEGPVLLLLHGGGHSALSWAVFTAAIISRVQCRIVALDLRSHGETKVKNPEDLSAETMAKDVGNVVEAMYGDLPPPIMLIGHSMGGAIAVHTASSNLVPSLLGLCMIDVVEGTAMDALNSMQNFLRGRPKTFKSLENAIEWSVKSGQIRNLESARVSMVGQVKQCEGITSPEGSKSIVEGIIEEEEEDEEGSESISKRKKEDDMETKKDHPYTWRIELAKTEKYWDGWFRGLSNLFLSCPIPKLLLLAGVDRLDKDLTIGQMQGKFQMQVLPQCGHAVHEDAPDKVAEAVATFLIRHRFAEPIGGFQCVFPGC
Put plainly: PP2A methylesterase (PPME) inhibition, filter paper method. The class given is biochemical. As for the experimental part: This example provides a method by which the rate of demethylation of methyl PP2A can be determined. For the composition of ^3H-labeled methyl-PP2A, 100 μl reaction mixtures consisting of purified PP2A AC dimers (prepared as described in Example 3), purified PPMT (prepared as described in Example 1), 50 mM MOPS buffer pH 7.2, 5 mM DTT, 1 mM EDTA, 1 mg/ml BSA and 10 μl ^3H-SAM were incubated at 37° C. for 30 min and loaded onto a desalting column pre-equilibrated in 50 mM MOPS-Na pH 7.2, 1 mM DTT, 1 mM EDTA, 200 mM NaCl and 5% glycerol. The sample was eluted with the same buffer, 50 μl fractions were collected, and each aliquot analyzed by scintillation counting. Fractions containing ^3H-methyl PP2A were collected and stored at 4° C.
The following assay (see Lee, J. et al., Proc. Nat'l Acad. Sci. U.S.A. 93(12):[…] (1996)) is referred to subsequently as the “filter paper method”. The test compound was incubated with purified PPME (prepared as described in Example 2) and purified ^3H-methyl-labeled PP2A (the preparation of which is described in the preceding paragraph) in Buffer C (50 mM MOPS, 1 mM EDTA, 1 mM DTT buffer at pH 7.2, as in Example 3). After incubation at 37° C. for a fixed time (typically 10 minutes), the reaction mixture was spotted onto a 1 cm^2 piece of Whatman 3 mM filter paper. The filter paper was immediately dipped in 10% ice-cold TCA, and then kept on ice in a plastic tray. After all reactions were run, the filter papers were washed at 4° C. with stirring in a large excess of 10% TCA, similarly washed twice at 4° C. with 100% methanol, and then vacuum dried at 45° C. for 1 hr to remove the ^3H-methanol produced by PP2A demethylation. The dried filter papers then were assayed for radioactivity by submerging them in scintillation fluid and performing scintillation counting. This procedure is easily adapted to a 96-well format to allow high-throughput screening (described below).
As used herein to refer to assay results, the term “inhibition activity” refers to the following relationship: Inhibition activity=1−(amount of methyl-PP2A carboxyl demethylated with inhibitor)/(amount of methyl-PP2A carboxyl […] without inhibitor).

The mark [1] stands for this setting: PPME at 85 nM, IC50 higher than the value tested, read-out: IC50.

Turning to `Cc1c(C)c2c(c(C)c1O)CCC(C)(CCCC(C)CCCC(C)CCCC(C)C)O2` (racemic) [#12-1, DL-α-tocopherol], for the setting “PPME at 85 nM, read-out: IC50”, the IC50 was 35 µM.

In the case of `COc1cc(/C=C/C(=O)CC(=O)/C=C/c2ccc(O)c(OC)c2)ccc1O` [CCM-L, Curcumin], under “PPME at 85 nM, read-out: IC50”, the IC50 turned out to be 771 µM.

Consider `O=C(/C=C/c1ccc(O)c(O)c1)O[C@@H]1C[C@](O)(C(=O)O)C[C@@H](O)[C@H]1O` [CGA, Chlorogenic acid], for which the IC50 under setting [1] is more than 1000 µM.

Take `O=C(O)/C=C/c1ccc(O)c(O)c1` [DHCA, 3,4-Dihdroxycinnamic acid]: under setting [1], the IC50 was more than 1000 µM.

Turning to `COc1cc(C=CC(=O)O)ccc1O` [HMCA, 4-Hydroxy-3-methoxycinnamic acid], the IC50 under setting [1] was more than 1000 µM.

Consider `O=C(O)[C@]1(O)C[C@@H](O)[C@@H](O)[C@H](O)C1` [QA, D(−)-Quinic acid], for which the IC50 under setting [1] was more than 10000 µM.

Regarding `Cn1c(=O)c2c(ncn2C)n(C)c1=O` [caffeine], under “read-out: concentration required for 50% inhibition of PPME”, the IC50 was more than 440 µM.

These data come from US7923041B2, “Compositions and methods for enhancing cognitive function” (Signum Biosciences, Inc., priority 2005, dated 2011).
